The values below come from patent KR20180000079A, “Kahweol을 포함하는 항비만 조성물” (경북대학교 산학협력단, priority 2016, dated 2018).

Holding throughout (format): cell-based, mouse
Data set [1] concerns 3T3-L1 preadipocytes [3T3-L1 전구 지방세포]. Put plainly: MTT assay, cytotoxicity in 3T3-L1 preadipocytes. The conditions noted are these: 3T3-L1 cells, 4 or 40 μM, 24 or 48 h. (Tetrazolium assays rely on reduction of a dye to a coloured formazan, in cell work by metabolically active cells.)
The test system of data set [2] is C/EBPα. The experiment in a line: RT-PCR, C/EBPα mRNA expression in 3T3-L1 cells. To be noted: 40 μM.
The subject of data set [3] is PPARγ. Put plainly: Western blot, PPARγ protein expression in 3T3-L1 adipocytes. The conditions noted are these: 40 μM. In general terms: A western blot detects proteins with antibodies after separation by electrophoresis.
Data set [4] has as its system adiponectin [아디포넥틴]. The experiment in a line: Western blot, adiponectin protein expression in 3T3-L1 adipocytes. To be noted: 40 μM.
The subject of data set [5] is adiponectin [아디포넥틴]. The experiment in a line: RT-PCR, adiponectin mRNA expression in 3T3-L1 cells. The conditions noted are these: 40 μM.
Data set [6] concerns 3T3-L1 adipocytes [3T3-L1 지방세포]. Put plainly: Triglyceride (TG) quantification in 3T3-L1 cells (colorimetric kit).
For data set [7] the test system is unchanged. Put plainly: Oil Red O staining: differentiation and lipid accumulation in 3T3-L1 cells.
The subject of data set [8] is C/EBPα. Put plainly: Western blot, C/EBPα protein expression in 3T3-L1 adipocytes. The conditions noted are these: 40 μM.
The subject of data set [9] is PPARγ. Put plainly: RT-PCR, PPARγ mRNA expression in 3T3-L1 cells. The conditions noted are these: 40 μM.

Molecules are shown by their SMILES.

For `C[C@@]12C=Cc3occc3[C@H]1CC[C@@]13C[C@@H](CC[C@H]12)[C@@](O)(CO)C3` [Kahweol], the cytotoxic effect entry in data set [1] was “세포 독성 효과를 보이지 않았다”. Also, the “C/EBPα mRNA level” value with C/EBPα [2] is reported as “현저히 감소”. The PPARγ protein expression result in the data set on PPARγ [3] is reported as “억제됨”. Further, the adiponectin protein expression result in the data set with adiponectin [아디포넥틴] [4] is on record as “억제됨”. Besides, the “adiponectin mRNA level” value in the data set on adiponectin [아디포넥틴] [5] is “감소”. Moreover, in data set [6], the TG formation result is “억제함”. For the same compound, the “TG formation inhibitory activity compared with positive control” value in [6] (40 μM) was “양성 대조군 보다 우수한”. Moreover, in [6] (Mus musculus, 40 μM, read-out: decrease of intracellular TG level), the inhibition at 40 µM was 43.3%. In addition, the “differentiation of 3T3-L1 cells” value in data set [7] (40 μM, 8 days) was “분화가 억제됨”. For the same compound, the cell morphology result in data set [7] (40 μM, 8 days, similar to preadipocytes (Fig. 3A)) is reported as “소형 스핀들-형상 형태”. In addition, the “lipid accumulation inhibitory activity compared with positive control” value in data set [7] (3T3-L1 cells, 40 μM) is listed as “양성 대조군 보다 우수한”. Besides, the intracellular lipid accumulation result in data set [7] (3T3-L1 cells, Oil Red O) is listed as “억제함”. The C/EBPα protein expression entry with C/EBPα [8] is “억제됨”. The “PPARγ mRNA level” value in the data set with PPARγ [9] is given as “현저히 감소”.
